Results reported in a compilation of properties of binary mixtures (doi:10.1021/ie303238h).

Assay: xn = mol fraction of the nth substance listed
Conditions: 298.15 K, 100 kPa

Compound	viscosity (x1 = 1)	viscosity (x1 = 0.2008)	viscosity (x1 = 0.4356)	viscosity (x1 = 0.494)	viscosity (x1 = 0.5982)	viscosity (x1 = 0.6996)	viscosity (x1 = 0.8)	viscosity (x1 = 0.9025)	viscosity (x2 = 0.1009)	viscosity (x2 = 0.2031)	viscosity (x2 = 0.2951)	viscosity (x2 = 0.4027)	viscosity (x2 = 0.5989)	viscosity (x2 = 0.8024)	viscosity (x2 = 0.8996)
CC[n+]1ccn(C)c1.O=S(=O)([N-]S(=O)(=O)C(F)(F)F)C(F)(F)F + CCCC[n+]1ccn(C)c1.CCOS(=O)(=O)[O-]	32.55 mPa·s	–	–	–	–	–	–	–	–	–	–	–	–	–	–
CC[n+]1ccn(C)c1.O=S(=O)([N-]S(=O)(=O)C(F)(F)F)C(F)(F)F + CCOS(=O)(=O)[O-].CC[n+]1ccn(C)c1	32.55 mPa·s	90.6 mPa·s	72.5 mPa·s	67.8 mPa·s	58.31 mPa·s	50.07 mPa·s	43.24 mPa·s	37.67 mPa·s	–	–	–	–	–	–	–
CCCC[n+]1ccn(C)c1.CCOS(=O)(=O)[O-] + CC[n+]1ccn(C)c1.O=S(=O)([N-]S(=O)(=O)C(F)(F)F)C(F)(F)F	–	–	–	–	–	–	–	–	212.4 mPa·s	172.4 mPa·s	139.9 mPa·s	109.3 mPa·s	69.7 mPa·s	47.55 mPa·s	39.59 mPa·s
